Results reported in PubChem BioAssay (NCI).
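Cultured in 96-well plates, cells were exposed to test compound for 48 hours across five concentrations. Here, GI50 denotes the concentration required for 50% inhibition of growth. TGI: total growth inhibition.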

How the values were obtained:
Assay in all cases: NCI tumour cell line growth inhibition, 48 h
[1] = tested on: 786-0 renal
[2] = tested on: A498 renal
[3] = tested on: A549 NSCLC
[4] = tested on: ACHN renal
[5] = tested on: BT-549 breast
[6] = tested on: CAKI-1 renal
[7] = tested on: CCRF-CEM leukemia
[8] = tested on: DU-145 prostate
[9] = tested on: EKVX NSCLC
[10] = tested on: HCC-2998 colon
[11] = tested on: HCT-116 colon
[12] = tested on: HCT-15 colon
[13] = tested on: HL-60(TB) leukemia
[14] = tested on: HOP-92 NSCLC
[15] = tested on: HS 578T breast
[16] = tested on: HT29 colon
[17] = tested on: IGROV1 ovarian
[18] = tested on: K-562 leukemia
[19] = tested on: KM12 colon
[20] = tested on: LOX IMVI melanoma
[21] = tested on: M14 melanoma
[22] = tested on: MALME-3M melanoma
[23] = tested on: MDA-MB-231 breast
[24] = tested on: MDA-MB-435
[25] = tested on: MOLT-4 leukemia
[26] = tested on: NCI-H226 lung
[27] = tested on: NCI-H23 lung
[28] = tested on: NCI-H460 lung
[29] = tested on: NCI-H522 lung
[30] = tested on: NCI/ADR-RES ovarian
[31] = tested on: OVCAR-3 ovarian
[32] = tested on: OVCAR-4 ovarian
[33] = tested on: OVCAR-5 ovarian
[34] = tested on: OVCAR-8 ovarian
[35] = tested on: PC-3 prostate
[36] = tested on: RPMI-8226 leukemia
[37] = tested on: RXF 393 renal
[38] = tested on: SF-268 CNS
[39] = tested on: SF-295 CNS
[40] = tested on: SF-539 CNS
[41] = tested on: SK-MEL-2 melanoma
[42] = tested on: SK-MEL-28 melanoma
[43] = tested on: SK-MEL-5 melanoma
[44] = tested on: SN12C renal
[45] = tested on: SNB-19 CNS
[46] = tested on: SNB-75 CNS
[47] = tested on: SR leukemia
[48] = tested on: SW-620 colon
[49] = tested on: TK-10 renal
[50] = tested on: U251 CNS
[51] = tested on: UACC-257 melanoma
[52] = tested on: UACC-62 melanoma
[53] = tested on: UO-31 renal
[54] = tested on: MCF7 breast
[55] = tested on: COLO 205 colon
[56] = tested on: SK-OV-3 ovarian
[57] = tested on: HOP-62 NSCLC

In the case of `C=C1C(=O)O[C@H]2[C@H]1CC/C(COC(=O)NCc1cn(C)c3ccccc13)=C\CC[C@@]1(C)O[C@@H]21`, the GI50 [1] is reported as 685 nM, the TGI [1] is reported as 2040 nM and the GI50 [2] is reported as 3210 nM. It also gave a TGI [2] of 12100 nM, a GI50 [3] of 2170 nM and a TGI [3] of 7140 nM. It also gave a GI50 [4] of 533 nM, a TGI [4] of 1810 nM and a GI50 [5] of 469 nM. It also gave a TGI [5] of 1880 nM, a GI50 [6] of 1320 nM and a TGI [6] of 2640 nM. For the same molecule, the GI50 [7] was 335 nM, the TGI [7] was 2260 nM and the GI50 [8] was 1260 nM. For the same molecule, the TGI [8] was 2550 nM, the GI50 [9] was 1850 nM and the TGI [9] was 4320 nM. It also gave a GI50 [10] of 2300 nM, a TGI [10] of 5330 nM and a GI50 [11] of 288 nM. The TGI [11] was 1070 nM, the GI50 [12] was 611 nM and the TGI [12] was 2170 nM. The GI50 [13] was 490 nM, the TGI [13] was 2860 nM and the GI50 [14] was 1460 nM. It also gave a TGI [14] of 3050 nM, a GI50 [15] of 3540 nM and a TGI [15] of 35700 nM. The GI50 [16] was 1220 nM, the TGI [16] was 3000 nM and the GI50 [17] was 1580 nM. The TGI [17] was 3310 nM, the GI50 [18] was 369 nM and the TGI [18] was 9260 nM. The GI50 [19] was 2880 nM, the TGI [19] was 7670 nM and the GI50 [20] was 594 nM. The TGI [20] was 1990 nM, the GI50 [21] was 1450 nM and the TGI [21] was 2920 nM. It also gave a GI50 [22] of 1920 nM, a TGI [22] of 3640 nM and a GI50 [23] of 1680 nM. For the same molecule, the TGI [23] was 3540 nM, the GI50 [24] was 1280 nM and the TGI [24] was 3050 nM. It also gave a GI50 [25] of 1920 nM, a TGI [25] of 5980 nM and a GI50 [26] of 4380 nM. It also gave a TGI [26] of 20900 nM, a GI50 [27] of 2010 nM and a TGI [27] of 4690 nM. It also gave a GI50 [28] of 2770 nM, a TGI [28] of 10100 nM and a GI50 [29] of 1020 nM. It also gave a TGI [29] of 2440 nM, a GI50 [30] of 2370 nM and a TGI [30] of 12300 nM. It also gave a GI50 [31] of 1030 nM, a TGI [31] of 2300 nM and a GI50 [32] of 2380 nM. The TGI [32] was 7920 nM, the GI50 [33] was 1720 nM and the TGI [33] was 3960 nM. For the same molecule, the GI50 [34] was 1400 nM, the TGI [34] was 5180 nM and the GI50 [35] was 1760 nM. It also gave a TGI [35] of 4790 nM, a GI50 [36] of 696 nM and a TGI [36] of 4220 nM. For the same molecule, the GI50 [37] was 1260 nM, the TGI [37] was 2700 nM and the GI50 [38] was 1840 nM. It also gave a TGI [38] of 4950 nM, a GI50 [39] of 3270 nM and a TGI [39] of 13900 nM. The GI50 [40] was 1370 nM, the TGI [40] was 2700 nM and the GI50 [41] was 2550 nM. It also gave a TGI [41] of 7790 nM, a GI50 [42] of 1430 nM and a TGI [42] of 3010 nM. It also gave a GI50 [43] of 1410 nM, a TGI [43] of 2740 nM and a GI50 [44] of 1210 nM. It also gave a TGI [44] of 3010 nM, a GI50 [45] of 2840 nM and a TGI [45] of 13000 nM. The GI50 [46] was 4160 nM, the TGI [46] was 17600 nM and the GI50 [47] was 395 nM. It also gave a TGI [47] of 4610 nM, a GI50 [48] of 524 nM and a TGI [48] of 1980 nM. The GI50 [49] was 1800 nM, the TGI [49] was 3430 nM and the GI50 [50] was 1960 nM. The TGI [50] was 5240 nM, the GI50 [51] was 1560 nM and the TGI [51] was 4030 nM. For the same molecule, the GI50 [52] was 1690 nM, the TGI [52] was 4330 nM and the GI50 [53] was 1340 nM. The TGI [53] was 2620 nM.

For `COc1ccc(CN2c3ccccc3Sc3ccccc32)c(F)c1`, the GI50 [10] was 5060 nM, the TGI [10] was > 100000 nM and the GI50 [11] was 39.8 nM. For the same molecule, the TGI [11] was > 100000 nM, the GI50 [12] was 37.9 nM and the TGI [12] was > 100000 nM. For the same molecule, the GI50 [16] was 35 nM, the TGI [16] was > 100000 nM and the GI50 [17] was 4560 nM. For the same molecule, the TGI [17] was > 100000 nM, the GI50 [18] was 38 nM and the TGI [18] was > 100000 nM. For the same molecule, the GI50 [19] was 43.2 nM, the TGI [19] was > 100000 nM and the GI50 [21] was 38.1 nM. For the same molecule, the TGI [21] was > 100000 nM, the GI50 [54] was 32.7 nM and the TGI [54] was > 100000 nM. For the same molecule, the GI50 [23] was 5090 nM, the TGI [23] was > 100000 nM and the GI50 [26] was 13000 nM. For the same molecule, the TGI [26] was > 100000 nM, the GI50 [33] was 4390 nM and the TGI [33] was > 100000 nM. The GI50 [42] was 5050 nM, the TGI [42] was > 100000 nM and the GI50 [44] was 10600 nM. The TGI [44] was > 100000 nM, the GI50 [47] was 59.6 nM and the TGI [47] was > 100000 nM. The GI50 [48] was 36.3 nM, the TGI [48] was > 100000 nM and the GI50 [51] was > 100000 nM. For the same molecule, the TGI [51] was > 100000 nM.

`CNc1ccc(C(=O)CC(O)CCC(C)C2OC(=O)CC(O)CC(=O)CC(O)CC(O)CC(O)CC(O)CC3(O)CC(O)C(C(=O)N4CCOCC4)C(CC(OC4OC(C)C(O)C(N)C4O)/C=C/C=C/C=C/C=C\C=C/C=C/C=C/C2C)O3)cc1` (configuration not stated) was tested, and the TGI [1] was > 100000 nM, the TGI [3] was > 100000 nM and the TGI [55] was > 100000 nM. For the same molecule, the TGI [8] was 3310 nM, the TGI [11] was > 100000 nM and the TGI [13] was > 100000 nM. The TGI [18] was > 100000 nM, the TGI [19] was 747 nM and the TGI [22] was 400 nM. The TGI [24] was 798 nM, the TGI [25] was > 100000 nM and the TGI [26] was 553 nM. The TGI [29] was 550 nM, the TGI [33] was > 100000 nM and the TGI [34] was > 100000 nM. It also gave a TGI [37] of 637 nM, a TGI [41] of 8550 nM and a TGI [43] of 462 nM. The TGI [56] was > 100000 nM, the TGI [48] was > 100000 nM and the TGI [51] was 384 nM.

Work on `COc1ccc2[nH]c(O)c(N=NC(=O)c3oc4ccccc4c3C)c2c1` yielded a GI50 [5] of 5380 nM, a TGI [5] of 33700 nM and a GI50 [9] of 2940 nM. For the same molecule, the TGI [9] was > 100000 nM, the GI50 [13] was > 100000 nM and the TGI [13] was > 100000 nM. The GI50 [57] was 1920 nM, the TGI [57] was 4020 nM and the GI50 [15] was 2410 nM. The TGI [15] was 7720 nM, the GI50 [20] was 3160 nM and the TGI [20] was > 100000 nM. For the same molecule, the GI50 [23] was 2070 nM, the TGI [23] was 5100 nM and the GI50 [27] was 1860 nM. For the same molecule, the TGI [27] was 4430 nM, the GI50 [29] was 6070 nM and the TGI [29] was > 100000 nM. For the same molecule, the GI50 [34] was 3220 nM, the TGI [34] was > 100000 nM and the GI50 [38] was 5180 nM. It also gave a TGI [38] of 56800 nM, a GI50 [41] of 2560 nM and a TGI [41] of 6620 nM. The GI50 [44] was 2820 nM, the TGI [44] was > 100000 nM and the GI50 [45] was 3450 nM. It also gave a TGI [45] of 16200 nM, a GI50 [46] of 1250 nM and a TGI [46] of 2750 nM. For the same molecule, the GI50 [52] was 5190 nM and the TGI [52] was > 100000 nM.

Molecule `Cn1cc(-c2nc(-c3c[nH]c4ccncc34)cs2)c2cc(Br)ccc21` has a GI50 [8] of 1820 nM, a TGI [8] of 3280 nM and a GI50 [23] of 1410 nM. The TGI [23] was 2840 nM, the GI50 [33] was 1810 nM and the TGI [33] was 3270 nM. It also gave a GI50 [41] of 2000 nM, a TGI [41] of 3620 nM and a GI50 [43] of 1600 nM. The TGI [43] was 2950 nM, the GI50 [46] was 1230 nM and the TGI [46] was 2540 nM. It also gave a GI50 [51] of 1990 nM and a TGI [51] of 3520 nM.
